From ChEMBL document CHEMBL4706640, “Structure-Based Drug Design and Synthesis of PI3Kα-Selective Inhibitor (PF-06843195)” (J Med Chem, 2021) come the findings set out here.

Each structure is given as a SMILES string. Converted amounts (≈) assume the structure as drawn. The source made the active and inactive calls. The calls are words filed in the database; no cut-off is given here.

A short description of series [1]: Half life in human intestinal S9 fraction assessed as 2,2-difluoroethyl (3S)-3-{[2'-amino-5-fluoro-2-(morpholin-4-yl)-4,5'-bipyrimidin-6-yl]amino}-3-(hydroxymethyl)pyrrolidine-1-carboxylate level by enzymatic hydrolysis assay. Format: ADME, subcellular, Intestine.
The nature of series [2]: Tmax in Wistar Han rat at […], po. In kind it is ADME, organism-based. The settings on record: in vivo.
The nature of series [3]: Tmax in Wistar Han rat assessed as 2,2-difluoroethyl (3S)-3-{[2'-amino-5-fluoro-2-(morpholin-4-yl)-4,5'-bipyrimidin-6-yl]amino}-3-(hydroxymethyl)pyrrolidine-1-carboxylate level at […], po. Format: ADME, organism-based. Conditions: in vivo.
Series [4] is described as follows: Cmax in Wistar Han rat assessed as 2,2-difluoroethyl (3S)-3-{[2'-amino-5-fluoro-2-(morpholin-4-yl)-4,5'-bipyrimidin-6-yl]amino}-3-(hydroxymethyl)pyrrolidine-1-carboxylate level at […], po. Format: ADME, organism-based. The settings on record: in vivo.
Series [5] can be described thus: AUC (0 to t) in Wistar Han rat at […], po. Format: ADME, organism-based. Conditions: in vivo.
The nature of series [6]: Plasma clearance in Wistar Han rat at 2.3 mg/kg, iv. In kind it is ADME, organism-based.
A short description of series [7]: Half life in rat intestinal S9 fraction assessed as 2,2-difluoroethyl (3S)-3-{[2'-amino-5-fluoro-2-(morpholin-4-yl)-4,5'-bipyrimidin-6-yl]amino}-3-(hydroxymethyl)pyrrolidine-1-carboxylate level by enzymatic hydrolysis assay. Format: ADME, subcellular, Intestine.
Series [8] in a line: Volume of distribution at steady state in Wistar Han rat at 2.3 mg/kg, iv. In kind it is ADME, organism-based. The settings on record: in vivo, read-out: Vdss.
The subject of series [9] is MCF7. In words: Antitumor activity against human MCF7 cells xenografted in mouse model assessed as tumor growth inhibition. Format: functional, cell-based.
Series [10] deals with MDA-MB-361. In words: Antitumor activity against human MDA-MB-361 cells xenografted in mouse model assessed as tumor growth inhibition. In kind it is functional, cell-based.
The nature of series [11]: AUC (0 to t) in Wistar Han rat assessed as 2,2-difluoroethyl (3S)-3-{[2'-amino-5-fluoro-2-(morpholin-4-yl)-4,5'-bipyrimidin-6-yl]amino}-3-(hydroxymethyl)pyrrolidine-1-carboxylate level at 2.3 mg/kg, iv. In kind it is ADME, organism-based. Details: dose 2.3 mg/kg. Conditions: in vivo.
Series [12] can be described thus: AUC (0 to t) in Wistar Han rat assessed as 2,2-difluoroethyl (3S)-3-{[2'-amino-5-fluoro-2-(morpholin-4-yl)-4,5'-bipyrimidin-6-yl]amino}-3-(hydroxymethyl)pyrrolidine-1-carboxylate level at […], po. Format: ADME, organism-based. The settings on record: in vivo.
Series [13] in a line: AUC (0 to t) in Wistar Han rat at 2.3 mg/kg, iv. Details: dose 2.3 mg/kg. Format: ADME, organism-based. The settings on record: in vivo.
Series [14] can be described thus: Half life in Wistar Han rat at 2.3 mg/kg, iv. Format: ADME, organism-based. Conditions: in vivo.
Series [15] concerns MCF7. As to the kind of experiment: Antitumor activity against human MCF7 cells xenografted in mouse model assessed as tumor growth regression in presence of fulvestrant. Format: functional, cell-based.
Series [16] in a line: Kinetic solubility of compound at pH 7.4 after 24 hrs by LC/MS/MS analysis. Format: physicochemical. Conditions: buffer, read-out: Kinetic_solubility.
Series [17] can be described thus: Thermodynamic solubility of compound at pH 7.4. Format: physicochemical. The settings on record: buffer, read-out: Therm_solubility.
The nature of series [18]: Cmax in Wistar Han rat at […], po. Format: ADME, organism-based. The settings on record: in vivo.
Series [19] in a line: Oral bioavailability in Wistar Han rat at […]. In kind it is ADME, organism-based. Conditions: in vivo.
Series [20] deals with MCF7. As to the kind of experiment: Antitumor activity against human MCF7 cells xenografted in mouse model assessed as tumor growth regression in presence of fulvestrant and palbociclib. In kind it is functional, cell-based.
Series [21] relates to MCF7. In words: Antitumor activity against human MCF7 cells xenografted in mouse model assessed as tumor growth regression in presence of palbociclib. In kind it is functional, cell-based.

For the compound `Nc1ncc(-c2nc(N3CCOCC3)nc(N[C@@]3(COP(=O)(O)O)CCN(C(=O)OCC(F)F)C3)c2F)cn1`, the t1/2 was determined as 14 min in [1] and 86 min in [7]. Further, the Tmax in series [2] is 10.2 min; in series [3] it was 120 min. For the same compound, the peak concentration (Cmax) in [4] amounted to 290 ng/mL; in series [18], 4.3 ng/mL. The results for the AUC(0-t) in series [5] and in series [13] were 2.9 ng·h/mL and 430 ng·h/mL, respectively. Also, in [6], the clearance worked out at 89 mL/min/kg. The Vd in series [8] came out at 0.34 L/kg. The TGI result in series [9] and in series [10] was “Active” throughout. Besides, the AUCt in series [11] amounted to 900 ng·h/mL; in series [12], 1500 ng·h/mL. The compound further showed a half-life in [14] of 16.8 min. In addition, the outcome in [15], in series [20] and in series [21] was Active. Also, the solubility kinetic at 24 h in series [16] is 310 µg/mL (≈ 0.536 mM). Moreover, the solubility thermodynamic in series [17] worked out at 6200 µg/mL (≈ 10.7 mM). For the same compound, the bioavailability in [19] worked out at 0.14%.
